Results reported in PubChem BioAssay (NCI).
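In this assay, cells in 96-well plates receive the compound at five concentrations for 48 hours. Endpoints are linearly interpolated between the surrounding concentrations. TGI marks complete inhibition of growth.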

How the values were obtained:
Experiment in all cases: inhibition of tumour cell growth, NCI panel, 48 h
LOX IMVI melanoma = system: LOX IMVI melanoma
SW-620 colon = system: SW-620 colon
U251 CNS = system: U251 CNS
RXF 393 renal = system: RXF 393 renal
OVCAR-4 ovarian = system: OVCAR-4 ovarian
MDA-MB-231 breast = system: MDA-MB-231 breast
UO-31 renal = system: UO-31 renal
HOP-62 NSCLC = system: HOP-62 NSCLC
HCT-15 colon = system: HCT-15 colon
SF-295 CNS = system: SF-295 CNS
IGROV1 ovarian = system: IGROV1 ovarian
TK-10 renal = system: TK-10 renal
KM12 colon = system: KM12 colon
MCF7 breast = system: MCF7 breast
HOP-92 NSCLC = system: HOP-92 NSCLC
MALME-3M melanoma = system: MALME-3M melanoma
SK-MEL-2 melanoma = system: SK-MEL-2 melanoma
K-562 leukemia = system: K-562 leukemia
NCI-H23 lung = system: NCI-H23 lung
CCRF-CEM leukemia = system: CCRF-CEM leukemia
NCI-H522 lung = system: NCI-H522 lung
T-47D breast = system: T-47D breast
MDA-N = system: MDA-N
NCI-H460 lung = system: NCI-H460 lung
SK-OV-3 ovarian = system: SK-OV-3 ovarian
RPMI-8226 leukemia = system: RPMI-8226 leukemia
HCT-116 colon = system: HCT-116 colon
SNB-19 CNS = system: SNB-19 CNS
OVCAR-5 ovarian = system: OVCAR-5 ovarian
NCI-H226 lung = system: NCI-H226 lung
SN12C renal = system: SN12C renal
SF-268 CNS = system: SF-268 CNS
HCC-2998 colon = system: HCC-2998 colon
A549 NSCLC = system: A549 NSCLC
SK-MEL-28 melanoma = system: SK-MEL-28 melanoma
UACC-62 melanoma = system: UACC-62 melanoma
NCI/ADR-RES ovarian = system: NCI/ADR-RES ovarian
HT29 colon = system: HT29 colon
BT-549 breast = system: BT-549 breast
OVCAR-8 ovarian = system: OVCAR-8 ovarian
ACHN renal = system: ACHN renal
786-0 renal = system: 786-0 renal
M14 melanoma = system: M14 melanoma
EKVX NSCLC = system: EKVX NSCLC
CAKI-1 renal = system: CAKI-1 renal
MOLT-4 leukemia = system: MOLT-4 leukemia
A498 renal = system: A498 renal
SF-539 CNS = system: SF-539 CNS
SK-MEL-5 melanoma = system: SK-MEL-5 melanoma
OVCAR-3 ovarian = system: OVCAR-3 ovarian
COLO 205 colon = system: COLO 205 colon
UACC-257 melanoma = system: UACC-257 melanoma
PC-3 prostate = system: PC-3 prostate
HL-60(TB) leukemia = system: HL-60(TB) leukemia
MDA-MB-435 = system: MDA-MB-435
DU-145 prostate = system: DU-145 prostate
HS 578T breast = system: HS 578T breast

Measured: TGI

CCCCCc1cccc(=O)o1
> 100 µM: all assays above
